In general, EC50 refers to the concentration that produces a half-maximal response.

The target of the test is T1, Somatostatin Receptor 2 (SSTR2) (Homo sapiens, UniProt P30874).
T1 construct: expressed in transfected cells
Nature of the test: Biochemical Assay for Activation of Somatostatin Receptor 2 (SSTR2), Cisbio HTRF cAMP assay. In kind it is cell-based. The settings on record: average pEC50; HTRF cAMP assay in stably-transfected cell line expressing SSTR2; cells incubated with compounds for 1-2h. On the procedure: Biochemical Assay for Activation of Somatostatin Receptor 2 (SSTR2)
Agonistic activation of SSTRs leads to an […] production of intracellular cAMP levels. Cisbio's homogeneous time-resolved fluorescence (HTRF) cAMP assay was used to measure cAMP concentration in an high-throughput format. Increase in intracellular cAMP concentrations was measuring using a stably-transfected cell line expressing SSTR2. Test compounds were dissolved in DMSO. Cells were incubated with compounds for 1-2h, and subsequently competitive binding of cAMP produced due to the activation of SSTR2 by the test compounds was measured using the Cisbio cAMP Gs dynamic assay system (Perkin Elmer, Bedford, MA).
The average pEC50 was determined for the test compounds.

T1 sequence (P30874 whole entry, species assumed): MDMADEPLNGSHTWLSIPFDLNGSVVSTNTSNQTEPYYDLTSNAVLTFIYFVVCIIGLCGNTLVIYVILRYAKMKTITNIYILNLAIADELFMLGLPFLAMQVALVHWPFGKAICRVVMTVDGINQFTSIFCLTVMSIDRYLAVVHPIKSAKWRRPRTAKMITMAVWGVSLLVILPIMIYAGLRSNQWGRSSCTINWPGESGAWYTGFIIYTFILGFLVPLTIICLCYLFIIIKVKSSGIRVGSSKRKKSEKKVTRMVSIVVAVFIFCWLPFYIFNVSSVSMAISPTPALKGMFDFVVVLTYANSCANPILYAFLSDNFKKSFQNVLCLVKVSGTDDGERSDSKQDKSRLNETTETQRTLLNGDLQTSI

Consider `CO[C@@H]1CN(c2c(-c3cc(F)cc(F)c3)cnc3c2nc(-c2ccc4[nH]c(=O)[nH]c4c2)n3C)CC[C@H]1N` [Compound 25], for which the EC50 is greater than 10000 nM.

On to `COCOc1c(C#N)cccc1-c1ccc2ncc(-c3cc(F)cc(F)c3)c(OC3CCCC(NC(=O)OC(C)(C)C)C3)c2c1` (centres unmarked) [Compound 141], for which the EC50 was greater than 10000 nM.

`Cc1cc(F)cc(-c2cnc3ccc(-c4ccccc4C4NCCCN4)cc3c2N2CCC(=O)CC2)c1` [Compound 162]: the EC50 was 1000 nM.

In the case of `CC(C)(C)OC(=O)NC1CCN(c2c(-c3cc(F)cc(F)c3)cnc3c(C(=O)O)cc(-c4cc(F)cc(F)c4)cc23)CC1` [Compound 148], the EC50 was greater than 794 nM.

As for `Cc1cc(F)cc(-c2cnc3ccc(-c4cccc(C#N)c4O)cc3c2O[C@@H]2CC[C@H](N)C2)c1` [Compound 9], the concentration for a half-maximal effect (EC50) is 3.16 nM.

For the compound `C=COc1c(C#N)cccc1-c1ccc2ncc(-c3cc(F)cc(F)c3)c(N3CC[C@H](N)[C@@H](O)C3)c2c1` [Compound 153], the EC50 was 3.16 nM.

Regarding `Cc1cc(F)cc(-c2cnc3c(nc(-c4cc(F)cc(C(N)=O)c4)n3C)c2N2CCC(N)CC2)c1` [Compound 35, 3-(7-(4-aminopiperidin-1-yl)-6-(3-fluoro-5-methylphenyl)-3-methyl-3H-imidazo[4,5-b]pyridin-2-yl)-5-fluorobenzamide], the concentration for a half-maximal effect (EC50) is 158 nM.

Turning to `N#Cc1cccc(-c2ccc3ncc(-c4cc(F)cc(F)c4)c(-n4ccc(CN)c4)c3c2)c1O` [Compound 144], the EC50 is 1260 nM.

In the case of `CC(N)CCN1CCc2c(-c3cc(F)cc(F)c3)ccc3ncc(-c4cc(F)cc(F)c4)c1c23` (centres unmarked) [Compound 155], the EC50 was 631 nM.

As to `Cc1cc(F)cc(-c2cnc3c(c2N2CCC(N)CC2)-c2nc4cc(F)c(F)cc4n2CC3)c1` [Compound 107, 1-(9,10-difluoro-2-(3-fluoro-5-methylphenyl)-5,6-dihydrobenzo [4,5]imidazo[2,1-f][1,6]naphthyridin-1-yl)piperidin-4-amine], the EC50 was greater than 79.4 nM.

`NC1CCN(c2c(-c3cc(F)cc(F)c3)cnc3ccc(C4=CC=CN5CCNC(=O)C45O)cc23)CC1` (centres unmarked) [Compound 158]: the 50% effective concentration (EC50) was 501 nM.

For `Cc1cc(F)cc(-c2cnc3ccc4cc3c2N2CCC(CC2)NCC[C@H](N)COc2c(C#N)cccc2-4)c1` (single isomer, unassigned) [Compound 99], the half-maximal effective concentration (EC50) was 7.94 nM.

For the compound `Cc1cc(C)cc(-c2cnc3c(c2N2CC[C@H](N)C2)C(=O)N(c2cc(C)cc(C)c2)CC3)c1` [Compound 116], the EC50 was 1260 nM.

In the case of `Cc1cc(F)cc(-c2cnc3c(nc(-c4cccc(C#N)c4O)n3C)c2N2CCC(N)CC2)c1` [Compound 37], the EC50 was 316 nM.

Turning to `N[C@H]1CCN(c2c(-c3cc(F)cc(F)c3)cnc3c2C(=O)N(c2ccc(F)c(F)c2)CC3)C1` [Compound 114], the concentration giving a half-maximal response (EC50) was greater than 10000 nM.

On to `Cc1cc(F)cc(-c2cnc(Cl)c(-c3nc4cc(F)c(F)cc4[nH]3)c2N2CCC(N)CC2)c1` [Compound 104, 1-(2-chloro-3-(5,6-difluoro-1H-benzo[d]imidazol-2-yl)-5-(3-fluoro-5-methylphenyl)pyridin-4-yl)piperidin-4-amine], for which the concentration for a half-maximal effect (EC50) is 0.0794 nM.

On to `N#Cc1cccc(-c2ccc3ncc(-c4cc(F)cc(F)c4)c(-c4ccc(N)cn4)c3c2)c1O` [Compound 123], for which the EC50 was greater than 10000 nM.

Turning to `COc1cc(F)cc(-c2cnc3c(nc(-c4cc(F)cc(C(N)=O)c4)n3C)c2N2CC[C@@H](N)[C@H](OC)C2)c1` [Compound 30], the EC50 is 1000 nM.

As for `C=CCOc1c(C#N)cccc1-c1ccc2ncc(-c3cc(F)cc(F)c3)c(N3CCC(N)CC3)c2c1` [Compound 142], the 50% effective concentration (EC50) is 0.501 nM.

With `CO[C@@H]1CN(c2c(-c3cc(F)cc(F)c3)cnc3c2nc(-c2cc(F)cc(C(N)=O)c2)n3C)CC[C@H]1N` [Compound 24], the concentration giving a half-maximal response (EC50) is greater than 5010 nM.

Turning to `CO[C@@H]1CN(c2c(-c3cc(F)cc(F)c3)cnc3[nH]c(-c4ccc5[nH]c(=O)[nH]c5c4)nc23)CC[C@H]1N` [Compound 46, 5-(7-((3R,4R)-4-amino-3-methoxypiperidin-1-yl)-6-(3,5-difluorophenyl)-3H-imidazo[4,5-b]pyridin-2-yl)-1,3-dihydro-2H-benzo[d]imidazol-2-one], the concentration for a half-maximal effect (EC50) was greater than 10000 nM.

For the compound `COc1cc(F)cc(-c2cnc3[nH]c(-c4cccc(Br)c4O)nc3c2N2CCC(N)CC2)c1` [Compound 57], the EC50 is 10 nM.

As for `NCC1CCCCC1Oc1c(-c2cc(F)cc(F)c2)cnc2ccc(-c3cc(F)cc(F)c3)cc12` (centres unmarked) [Compound 20], the EC50 is 3980 nM.

On to `COc1cc(F)cc(-c2cnc3cc(-c4ccc5[nH]c(=O)[nH]c5c4)oc3c2N2CCC(N)CC2)c1` [Compound 130], for which the EC50 is 100 nM.

In the case of `N#Cc1cccc2c1OCCC(CO)NC1CCN(CC1)c1c(-c3cc(F)cc(F)c3)cnc3ccc-2cc13` (centres unmarked) [Compound 92], the concentration for a half-maximal effect (EC50) is greater than 10000 nM.

Turning to `NC(=O)c1cc(F)cc(-c2nc3c(N4CCC(N)CC4)c(-c4cc(F)cc(F)c4)cnc3[nH]2)c1` [Compound 65], the EC50 was 3160 nM.

Consider `Cn1c(-c2cccc(Br)c2O)nc2c(N3CCC(NC(=O)OC(C)(C)C)CC3)c(-c3cc(F)cc(F)c3)cnc21` [Compound 40], for which the half-maximal effective concentration (EC50) is greater than 10000 nM.

Consider `NC1CC(Oc2c(-c3cc(F)cc(F)c3)cnc3ccc(-c4cc(F)cc(F)c4)cc23)C1` (centres unmarked) [Compound 17], for which the EC50 is 12.6 nM.

For the compound `CN1CCCCNC2CCN(CC2)c2c(-c3cc(F)cc(F)c3)cnc3ccc(cc23)-c2cccnc2C1=O` [Compound 85], the 50% effective concentration (EC50) is 6310 nM.

In the case of `N#Cc1cccc(-c2ccc3ncc(-c4cc(F)cc(F)c4)c(-c4ccc(N)cc4)c3c2)c1O` [Compound 122, 3-(4-(4-aminophenyl)-3-(3,5-difluorophenyl)quinolin-6-yl)-2-hydroxy benzonitrile], the EC50 is greater than 10000 nM.

Take `Cc1cc(F)cc(-c2cnc3ccc(-c4cc(F)cc(C(N)=O)c4)cc3c2O[C@@H]2CC[C@H](N)C2)c1` [Compound 2]: the 50% effective concentration (EC50) was 1 nM.

Take `COc1cc(F)cc(-c2cnc3ccc(-c4cc(F)cc(C(N)=O)c4)cc3c2O[C@@H]2CC[C@H](N)C2)c1` [Compound 5]: the EC50 is 3.16 nM.

As for `Cn1c(-c2cccc(C#N)c2O)nc2c(N3CCC(N)CC3)c(-c3cc(F)cc(F)c3)cnc21` [Compound 43], the half-maximal effective concentration (EC50) is 6310 nM.

In the case of `NC1CCN(c2c(-c3cc(F)cc(F)c3)cnc3nc(-c4cccc(Br)c4O)[nH]c23)CC1` [Compound 64], the concentration giving a half-maximal response (EC50) is 31.6 nM.

Turning to `Cc1cc(F)cc(-c2cnc3ccc(-c4cc(F)cc(C(N)=O)c4)cc3c2O[C@H]2CC[C@@H](N)C2)c1` [Compound 3], the concentration giving a half-maximal response (EC50) is 7.94 nM.

On to `Cc1cc(F)cc(-c2cnc3ccc4cc3c2N2CCC(CC2)NCCCCOc2ccccc2-4)c1` [Compound 76], for which the EC50 was 0.0794 nM.

On to `COc1cc(F)cc(-c2cnc3[nH]c(-c4cc(F)cc(C(N)=O)c4)nc3c2N2CC[C@@H](N)[C@H](OC)C2)c1` [Compound 50], for which the concentration for a half-maximal effect (EC50) was greater than 10000 nM.

As to `NC(=O)c1cc(F)cc(-c2ccc3ncc(-c4cc(F)cc(F)c4)c(O[C@@H]4CC[C@H](N)C4)c3c2)c1` [Compound 10], the concentration giving a half-maximal response (EC50) was 10 nM.

For the compound `Cc1cc(F)cc(-c2cnc3ccc(-c4cc(F)cc(C(N)=O)c4)cc3c2O[C@@H]2CC[C@@H](N)C2)c1` [Compound 4], the EC50 is 0.398 nM.

Turning to `COc1cc(F)cc(-c2cnc3c(nc(-c4cccc(C#N)c4O)n3C)c2N2CC[C@@H](N)[C@H](OC)C2)c1` [Compound 29], the EC50 was greater than 10000 nM.

In the case of `N[C@H]1CC[C@@H](Oc2c(-c3cc(F)cc(F)c3)cnc3ccc(-c4cc(F)cc(F)c4)cc23)C1` [Compound 13], the concentration for a half-maximal effect (EC50) was 100 nM.

Regarding `Cc1cc(F)cc(-c2cnc3ccc4cc3c2N2CCC(CC2)NCCCNC(=O)c2ccccc2-4)c1` [Compound 86], the EC50 was 6310 nM.

Turning to `Cc1cc(F)cc(-c2cnc3ccc4cc3c2N2CCC(CC2)NCC[C@@H](O)COc2c(C#N)cccc2-4)c1` (single isomer, unassigned) [Compound 102], the concentration giving a half-maximal response (EC50) was 398 nM.

In the case of `Cc1cc(F)cc(-c2cnc3ccc(-c4cc(F)cc(C(N)=O)c4)cc3c2OC2CCCC(CN)C2)c1` (centres unmarked) [Compound 21], the concentration for a half-maximal effect (EC50) was 20 nM.

Regarding `N[C@@H]1CC[C@@H](Oc2c(-c3cc(F)cc(F)c3)cnc3ccc(-c4cc(F)cc(F)c4)cc23)C1` [Compound 14], the half-maximal effective concentration (EC50) is 12.6 nM.

As for `Cc1cc(F)cc(-c2c[n+]3c4ccc(cc4c2N2CCC(N)CC2)-c2ccccc2OCCCC3)c1` [Compound 161], the EC50 is 10 nM.

On to `Fc1cc(F)cc(-c2cnc3ccc4cc3c2N2CCC(CC2)NCCCCOc2cccc-4c2)c1` [Compound 68], for which the EC50 is 7.94 nM.

Take `COc1cc(F)cc(-c2cnc3c(nc(-c4ccc5[nH]c(=O)[nH]c5c4)n3C)c2N2CC[C@@H](N)[C@H](OC)C2)c1` [Compound 31]: the EC50 was greater than 10000 nM.

In the case of `CNCCCn1c(=O)n2c3cc(F)c(F)cc3nc2c2cncc(-c3cc(F)cc(F)c3)c21` [Compound 106, 4-(3,5-difluorophenyl)-9,10-difluoro-5-(3-(methylamino)propyl) benzo[4,5]imidazo[1,2-c]pyrido[3,4-e]pyrimidin-6(5H)-one], the concentration for a half-maximal effect (EC50) is 2000 nM.

As to `Cc1cc(F)cc(-c2cnc3ccc4cc3c2N2CCC(CC2)NCC(CO)CCOc2c(C#N)cccc2-4)c1` (single isomer, unassigned) [Compound 90], the concentration giving a half-maximal response (EC50) is 15.8 nM.

For `COc1cc(F)cc(-c2cnc3ccc(-c4ccc5[nH]c(=O)[nH]c5c4)cc3c2O[C@@H]2CC[C@H](N)C2)c1` [Compound 6], the EC50 was 63.1 nM.

Turning to `NC(=O)c1cc(F)cc(-c2cc3ncc(-c4cc(F)cc(F)c4)c(N4CCC(N)CC4)c3o2)c1` [Compound 128], the 50% effective concentration (EC50) is 100 nM.

On to `NC1CCN(c2c(-c3cc(F)cc(F)c3)cnc3c2C(=O)N(c2ccc(F)c(F)c2)CC3)CC1` [Compound 110], for which the concentration for a half-maximal effect (EC50) was 158 nM.

The record behind these values is patent US20260053794A1, “SOMATOSTATIN RECEPTOR 2 AGONISTS AND USES THEREOF” (Exelixis, Inc., priority 2022, published 2026).
